The structures appear in SMILES notation. Active and inactive are the calls of the source. The rule behind the calls is not given here.

In test [1] the test system is A2780. The test can be described thus: Antiproliferative activity against human A2780 cells by MTT assay. The test is classed as functional, cell-based.
Test [2] concerns HCT-8. The experiment in a line: Antiproliferative activity against human HCT-8 cells by MTT assay. The class given is functional, cell-based.
For test [3], the system named is HepG2. The experiment in a line: Induction of apoptosis in human HepG2 cells assessed as late apoptotic cells at 5 uM measured after 24 hrs incubation by Propidium iodide/Annexin V-FITC analysis (reference value: 5.71%). The class given is functional.
The test system of test [4] is HepG2. The test can be described thus: Antiproliferative activity against human HepG2 cells by MTT assay. The class given is functional, cell-based.
Test [5] deals with HT-29. The test can be described thus: Antiproliferative activity against human HT-29 cells by MTT assay. The class given is functional, cell-based.
Test [6] concerns HepG2. The experiment in a line: Induction of apoptosis in human HepG2 cells assessed as viable cells at 5 uM measured after 24 hrs incubation by Propidium iodide/Annexin V-FITC analysis (reference value: 90.2%). The class given is functional. To be noted: read-out: Activity.
In test [7] the test system is HepG2. The test can be described thus: Induction of apoptosis in human HepG2 cells assessed as early apoptotic cells at 5 uM measured after 24 hrs incubation by Propidium iodide/Annexin V-FITC analysis (reference value: 2.90%). The test is classed as functional.
The subject of test [8] is MCF7. The experiment in a line: Antiproliferative activity against human MCF7 cells by MTT assay. The test is classed as functional, cell-based.
Test [9] relates to HepG2. The experiment in a line: Induction of apoptosis in human HepG2 cells assessed as necrotic cells at 5 uM measured after 24 hrs incubation by Propidium iodide/Annexin V-FITC analysis (reference value: 1.14%). The test is classed as functional.
Test [10] concerns HepG2. The experiment in a line: Induction of chloride ion influx in human HepG2 cells assessed as effect on lysosomal chloride anions at […] measured after 12 hrs incubation by chloride-sensitive dye MQAE-MP based CLSM imaging analysis. The test is classed as functional, cell-based.
Test [11] relates to HepG2. The test can be described thus: Suppression of Golgi structural and functional protein expression in human HepG2 cells assessed as decrease in GM130 protein expression at 5 to 20 uM measured after 48 hrs incubation by Western blot analysis. The class given is cell-based. To be noted: dose 5-20 µM.
The subject of test [12] is HepG2. The test can be described thus: Disruption of homeostasis of chloride anions in golgi apparatus of human HepG2 cells assessed as increase in fluorescence intensity of 6-methoxy-1-(2-oxo-2-((4-sulfamoylphenyl)amino)ethyl)quinolin-1-ium Bromide at 50 uM measured after 12 hts by CLSM imaging analysis. The class given is functional, cell-based.
In test [13] the test system is Lipid bilayer. The experiment in a line: Vesicular anionophoric activity in Bulky nitrobenzene membrane assessed as induction of relative efflux of chloride ions measured up to 100 hrs by using chloride-selective electrode.
Test [14] concerns Lipid bilayer. The test can be described thus: Vesicular anionophoric activity in large unilamellar vesicle membrane derived from egg-yolk L-alpha-phosphatidylcholine assessed as induction of relative efflux of chloride ions in presence of sodium (Na+) measured up to 300 seconds by using chloride-selective electrode. To be noted: time <= 300.0 sec.
Test [15] concerns Lipid bilayer. The test can be described thus: Vesicular anionophoric activity in large unilamellar vesicle membrane derived from egg-yolk L-alpha-phosphatidylcholine assessed as induction of relative efflux of chloride ions in presence of potassium (K+) measured up to 300 seconds by using chloride-selective electrode. To be noted: time <= 300.0 sec.
Test [16] relates to Lipid bilayer. The test can be described thus: Vesicular anionophoric activity in large unilamellar vesicle membrane derived from egg-yolk L-alpha-phosphatidylcholine assessed as induction of relative efflux of chloride ions in presence of rubidium (Rb+) measured up to 300 seconds by using chloride-selective electrode. To be noted: time <= 300.0 sec.
The subject of test [17] is Lipid bilayer. The experiment in a line: Vesicular anionophoric activity in large unilamellar vesicle membrane derived from egg-yolk L-alpha-phosphatidylcholine assessed as induction of relative efflux of chloride ions in presence of lithium (Li+) measured up to 300 seconds by using chloride-selective electrode. To be noted: time <= 300.0 sec.
The subject of test [18] is Lipid bilayer. The experiment in a line: Vesicular anionophoric activity in large unilamellar vesicle membrane derived from egg-yolk L-alpha-phosphatidylcholine assessed as induction of relative efflux of chloride ions measured up to 300 seconds by using chloride-selective electrode.
For test [19], the system named is Lipid bilayer. The experiment in a line: Vesicular anionophoric activity in large unilamellar vesicle membrane derived from egg-yolk L-alpha-phosphatidylcholine assessed as induction of relative efflux of chloride ions in presence of cesium (Cs+) measured up to 300 seconds by using chloride-selective electrode. To be noted: time <= 300.0 sec.
In test [20] the test system is HepG2. The test can be described thus: Suppression of Golgi structural and functional protein expression in human HepG2 cells assessed as decrease in GRASP55 protein expression at 5 to 20 uM measured after 48 hrs incubation by Western blot analysis. The test is classed as cell-based. To be noted: dose 5-20 µM.
Test [21] deals with HepG2. The experiment in a line: Suppression of Golgi structural and functional protein expression in human HepG2 cells assessed as decrease in GRASP55 protein expression at 20 uM measured after 48 hrs incubation by Western blot analysis. The class given is cell-based.
The test system of test [22] is HepG2. The experiment in a line: Suppression of Golgi structural and functional protein expression in human HepG2 cells assessed as decrease in GM130 protein expression at 20 uM measured after 48 hrs incubation by Western blot analysis. The class given is cell-based.
Test [23] deals with HepG2. The test can be described thus: Disruption of homeostasis of chloride anions in golgi apparatus of human HepG2 cells assessed as increase in fluorescence intensity of 6-methoxy-1-(2-oxo-2-((4-sulfamoylphenyl)amino)ethyl)quinolin-1-ium Bromide measured after 12 hts by CLSM imaging analysis. The test is classed as functional, cell-based.

For `COc1cccc2c1C(=O)c1c(O)c3c(c(O)c1C2=O)C[C@@](O)(C(=O)CO)C[C@@H]3O[C@H]1C[C@H](N)[C@H](O)[C@H](C)O1.Cl` [DOXORUBICIN HYDROCHLORIDE], the IC50 in [1] worked out at 1.03 µM; in [2], 1.21 µM; in test [4] it was 0.57 µM; in test [5], 1.22 µM; in test [8] it was 0.32 µM. For the same compound, the Activity in test [3] came out at 20.7%; in test [7] it was 16.8%; in test [9] it was 3.96%. Besides, the viability at 5 µM in test [6] came to 58.5%.

As for `COc1ccc2c(ccc[n+]2CC(=O)Nc2ccc(S(N)(=O)=O)cc2)c1`, the result in [10] was Active.

Consider `COc1ccc(Nc2c(NCCCCCC(=O)Nc3ccc(S(N)(=O)=O)cc3)c(=O)c2=O)cc1`, for which the outcome in test [11] and in test [12] was inactive. In test [13], the Activity result is listed as “Active; Compound Exhibit Anion Transport Activity Most Probably Through Carrier Mechanism”. For the same compound, the outcome in test [14], in [15], in [16], in test [17], in test [19] and in [20] was Active. Besides, the IC50 in [1] is over 50 µM; in [2], 44.7 µM; in test [4] it was 41.9 µM; in [5], 49.5 µM; in test [8], 39.7 µM. Further, the EC50 in test [18] is listed as over 10 mol%.

As to `NS(=O)(=O)c1ccc(NC(=O)CCCCCNc2c(Nc3ccccc3)c(=O)c2=O)cc1`, the Activity result in test [13] is reported as “Active; Compound Exhibit Anion Transport Activity Most Probably Through Carrier Mechanism”. For the same compound, the result in test [21], in [14], in test [15], in [16], in [17] and in test [22] was Active. For the same compound, the outcome in test [19] was Active. Also, the concentration for half-maximal inhibition (IC50) in test [1] was 46.9 µM; in [2], 22.7 µM; in test [4], 26.7 µM; in test [5], 29.6 µM; in test [8] it was 28.5 µM. Also, the values for the EC50 in test [18] and in [23] were 9.35 mol% and 31.1 µM, respectively.

With `N#Cc1ccc(Nc2c(NCCCCCC(=O)Nc3ccc(S(N)(=O)=O)cc3)c(=O)c2=O)cc1`, in test [13], the Activity result is recorded as “Active; Compound Exhibit Anion Transport Activity Most Probably Through Carrier Mechanism”. The result in test [14], in [15], in [16], in test [17] and in [19] was Active. Moreover, the IC50 in test [1] is over 50 µM; in test [2], 31.8 µM; in test [4] it was 38.1 µM; in test [5] it was 45.1 µM; in test [8], 37.1 µM. In addition, the EC50 in test [18] is listed as 4.57 mol%.

`NS(=O)(=O)c1ccc(NC(=O)CCCCCNc2c(Nc3ccc(Br)cc3)c(=O)c2=O)cc1`: the Activity result in [13] is reported as “Active; Compound Exhibit Anion Transport Activity Most Probably Through Carrier Mechanism”. For the same compound, the result in [14], in test [15], in [16], in test [17] and in [19] was Active. Also, the IC50 in test [1] worked out at 48.8 µM; in [2] it was 41 µM; in [4] it was 35.9 µM; in test [5], 18.7 µM; in test [8] it was 15.5 µM. Moreover, the EC50 in [18] is listed as 3.06 mol%.

`NS(=O)(=O)c1ccc(NC(=O)CCCCCNc2c(Nc3ccc(F)cc3)c(=O)c2=O)cc1`: the Activity result in [13] is “Active; Compound Exhibit Anion Transport Activity Most Probably Through Carrier Mechanism”. Also, the outcome in test [14], in test [15], in test [16], in [17] and in test [19] was Active. Further, the IC50 in test [1] is over 50 µM; in [2], 36.5 µM; in [4] it was 33.6 µM; in [5], 42.1 µM; in [8] it was 30.1 µM. Also, the EC50 in test [18] was 3.76 mol%.
